Values of other authors as cited in US4344438A, “Optical sensor of plasma constituents” (The United States of America as represented by the …, priority 1980, dated 1982).

Target: Concanavalin-A (Con-A)
Conditions: from So and Goldstein, Biochem., Biophys. Acta 165, 398 (1968); read-out: Binding constant K of sugar to Concanavalin-A

| Structure (SMILES) | Kd [µM] |
| --- | --- |
| OC[C@H]1O[C@H](O[C@H]2[C@H](O)[C@@H](O)C(O)O[C@@H]2CO)[C@H](O)[C@@H](O)[C@@H]1O (mixture of isomers) [Maltose] | 350 |
| O=C(CO)[C@@H](O)[C@H](O)[C@H](O)CO [Fructose] | 730 |
| OC[C@H]1O[C@H](OC[C@H]2OC(O)[C@H](O)[C@@H](O)[C@@H]2O)[C@H](O)[C@@H](O)[C@@H]1O (some centres unmarked) [Isomaltose] | 180 |
| OC[C@H]1O[C@@](CO)(O[C@H]2O[C@H](CO)[C@@H](O)[C@H](O)[C@H]2O)[C@@H](O)[C@@H]1O [Sucrose] | 1900 |
| O=[N+]([O-])c1ccc(O[C@H]2O[C@H](CO)[C@@H](O)[C@H](O)[C@@H]2O)cc1 [p-nitrophenol-α-D mannopyranoside] | 29.4 |
